Consider two compounds from patent publication US11111249B2, “Heteroaryl-pyrazole derivative, and preparation method therefor and medical application thereof” (Jiangsu Hengrui Medicine Co., Ltd., priority 2017, dated 2021).

The target of one assay is T1, human TLR8 (Homo sapiens, UniProt Q9NR97).
T1 construct: host or cells: HEK-Blue hTLR8 (HEK293-derived) stably transfected cells
T1 sequence (Q9NR97 27-1041): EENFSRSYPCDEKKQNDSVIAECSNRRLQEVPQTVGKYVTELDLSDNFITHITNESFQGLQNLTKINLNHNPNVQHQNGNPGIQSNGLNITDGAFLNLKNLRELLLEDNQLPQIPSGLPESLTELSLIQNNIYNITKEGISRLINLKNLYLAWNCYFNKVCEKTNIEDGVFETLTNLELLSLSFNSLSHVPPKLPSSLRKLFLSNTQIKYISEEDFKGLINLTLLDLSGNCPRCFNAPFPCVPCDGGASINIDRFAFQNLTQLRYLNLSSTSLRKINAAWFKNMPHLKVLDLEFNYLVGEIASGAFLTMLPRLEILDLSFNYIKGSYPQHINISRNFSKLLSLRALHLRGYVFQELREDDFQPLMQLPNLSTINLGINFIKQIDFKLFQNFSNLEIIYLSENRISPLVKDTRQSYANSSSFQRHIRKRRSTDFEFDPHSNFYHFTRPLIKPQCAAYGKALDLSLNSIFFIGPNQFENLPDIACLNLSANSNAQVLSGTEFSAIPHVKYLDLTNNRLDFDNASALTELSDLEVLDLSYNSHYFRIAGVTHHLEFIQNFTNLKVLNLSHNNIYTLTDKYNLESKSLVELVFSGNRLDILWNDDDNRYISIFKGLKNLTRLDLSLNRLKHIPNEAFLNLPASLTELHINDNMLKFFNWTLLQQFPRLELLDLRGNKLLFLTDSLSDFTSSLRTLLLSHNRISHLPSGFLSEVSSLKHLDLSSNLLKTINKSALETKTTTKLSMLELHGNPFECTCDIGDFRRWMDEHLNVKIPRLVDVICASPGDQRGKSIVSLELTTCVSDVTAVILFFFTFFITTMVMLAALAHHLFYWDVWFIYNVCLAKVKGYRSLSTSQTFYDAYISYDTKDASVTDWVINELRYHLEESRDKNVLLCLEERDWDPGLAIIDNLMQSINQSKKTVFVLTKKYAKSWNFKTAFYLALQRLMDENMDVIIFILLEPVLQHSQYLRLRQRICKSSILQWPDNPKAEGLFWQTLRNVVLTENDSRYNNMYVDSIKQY
In words: Activation of hTLR8 in HEK-Blue hTLR8 stably transfected cells. The settings on record: OD 620 nm, 6-16 hours. The assay is classed as cell-based. The protocol:
The activation effect of the compound of the present application on the hTLR7 protein expressed in HEK-Blue™ hTLR7 stably transfected cells and hTLR8 protein expressed in HEK-Blue™ hTLR8 stably transfected cells were determined by the following experimental method:
The HEK-Blue assay medium was configured, HEK-Blue test dry powder was taken and 50 mL deendotoxin water were added to dissolve, then the resulting mixture was placed into the 37° C. incubator, and then filtered aseptically 10 minutes later. […]
The above-prepared compound was diluted 20-fold with a medium, and then 20 μL of the diluted compound were added to each well. HEK-Blue™ hTLR7 cells and HEK-Blue™ hTLR8 cells were taken separately, and the supernatant was removed first, then 2-5 mL pre-warmed PBS was added, placed in an incubator for 1-2 minutes, and the cells were gently pipetted, stained with trypan blue and counted. […]
The microplate reader reads at a wavelength of 620 nm. The corresponding OD value was obtained, and the EC50 value of the drug was calculated by Graphpad Prism. The activation effect of the compound of the present application and the control compound (prepared by the method of embodiment 21 of WO2016023511) on human TLR7 and TLR8 were determined by the above test, and the measured EC50 values were as shown in Table 1.

Assay [1] deals with peripheral blood mononuclear cells (PBMC). Kind of assay: Stimulation of the secretion of IFN-α from PBMC (HTRF). The assay is classed as cell-based, human. The settings on record: lowest concentration giving cytokine level at least 3 times the minimum detection limit; 24 hours. The protocol:
The ability of the compound of the present application to stimulate the secretion of IFN-α from PBMC was determined by the following experimental method:
Compounds were diluted in pure DMSO at a maximum concentration of 5 mM in 4-fold gradients for a total of 9 points. Then 4 μL of the compound were taken and added to 196 μL of RMPI 1640 medium containing 10% FBS and mixed. 50 μL per well were taken and added into a new 96-well cell culture plate.
All reagents were equilibrated to room temperature, and a 250 mL culture flask was taken and 60 mL blood and PBS+2% FBS were added therein, and the mixture was gently diluted by pipetting. […] The cells were resuspend with RMPI 1640 medium containing 10% FBS and counted, adjusted the amount of PBMC to 3.33×10^6 cells/mL, and 150 μL were taken and added to the cell culture plate to which the compound had been added, and cultured at 37° C. in a 5.0% CO2 incubator for 24 hours. […]
It was read in the HTRF mode on the PHERAStar. […]
The ability of the compound of the present application and the control compound (prepared by the method of embodiment 21 of WO2016023511) to stimulate the secretion of IFN-α from PBMC were determined by the above test, and the measured MEC values were as shown in Table 2.
For orientation: Time-resolved FRET reads energy transfer from a long-lived donor to a nearby acceptor.

As to `CCCCOc1nc(N)c2[nH]cc(Cc3ccc(CN4CCCC4)cc3)c2n1` [Embodiment 21 of WO2016023511], a half-maximal response at human TLR8 (EC50) required 12.5 µM. The “MEC (Minimal Effective Concentration) to stimulate the secretion of IFN-α from PBMC” value in assay [1] is recorded as 5.5 nM.
For the compound `CCCCOc1nc(N)c2[nH]nc(Cc3ccc(CN4CCCC4)cc3)c2n1` [Embodiment 1, 5-Butoxy-3-(4-(pyrrolidin-1-ylmethyl)benzyl)-1H-pyrazolo[4,3-d]pyrimidin-7-amine], it took 5.22 µM to reach a half-maximal effect at human TLR8 (EC50). The “MEC (Minimal Effective Concentration) to stimulate the secretion of IFN-α from PBMC” value in assay [1] was 0.28 nM.
